According to US5006343A, “Pulmonary administration of pharmaceutically active substances” (priority 1988, dated 1991):

Assays:
[1] = given systemically; cited from earlier work
[2] = In vivo anesthetized rat model, radiolabelled Vitamin E in serum, 24 hour timecourse
Procedure: (§1) The in vivo assay employed in examples 2 and 3 was performed by the following general procedure. The compositions were administered to the lungs of anesthetized adult Sprague-Dawley rats by endotracheal cannula. At various times after administration of the compositions, the animals were sacrificed by overdosing with anesthetics. The lungs and serum were obtained from each rat for analysis. The lung tissue was minced and extracted with 2:1 chloroform:methanol. The serum was extracted with 2:1 chloroform:methanol. The serum was sampled to get an indication of the amount of pharmaceutically active substance being transported into general circulation.
(§2) Liposomes were prepared as described in section A with the addition of ^3 H-Vitamin E in the lipid mixture before evaporation. The following weight ratios of lipid and Vitamin E were used to prepare the liposomes:
(§3) DPPC:PC:PG:Cholesterol:Vitamin E [drawing 1] The chloroform was evaporated from the lipid/Vitamin E mixture by rotary evaporation. The dried lipid/Vitamin E mixture was rehydrated in MEM-Krebs to a concentration of 87 μg Vitamin E/ml. Alveolar surfactant protein SP-A was added to the liposome mixture to a concentration of 100 μg/ml.
(§4) The liposomes containing Vitamin E prepared as in Example I above were tested in vivo by administration to rats according to the procedure outlined above in section C. […]

[3] = In vivo anesthetized rat model, lung incorporation of radiolabelled Vitamin E, 60 minute timecourse; design: species or system Sprague-Dawley rats; conditions: result in words
Procedure: The serum was extracted with 2:1 chloroform:methanol.
The animals were sacrificed at 0 and 60 minutes and the lungs were tested for incorporation of radiolabelled Vitamin E as described above, with the following results: […]

[4] = ASP activity (in vivo assay of Robertson, or in vitro surface tension assay); conditions: in combination as well as independently; result in words
Procedure: In this assay, the sample to be assessed is administered through an endotracheal tube to fetal rabbits or lambs delivered prematurely by Caesarian section. (These "preemies" lack their own alveolar surfactant, and are supported on a ventilator.) Measurements of lung Compliance, blood gases and ventilator pressure provide indices of activity.
Preliminary assessment of activity may also be made by an in vitro assay, for example that of Kihg, R. J., et al, Am J Physiol (1972) 223:715-726, or that illustrated below of Hawgood, et al, which utilizes a straightforward measurement of surface tension at an air-water interface when the protein is mixed with a phospholipid vesicle preparation. […] The ASP activity can be used to enhance pulmonary administration of pharmaceutically active substances.

[5] = In vivo anesthetized rat model, radiolabelled Vitamin E in lung, 24 hour timecourse
Procedure: as §1, §2, §3, §4

type II cells [6] = test: In vitro uptake of 6-carboxy-fluorscein liposomes by freshly isolated type II cells; type: cell-based, male Sprague-Dawley rats; conditions: result in words
Procedure: (§5) The in vitro assay employed in examples 1 and 4 was performed by the following general procedure. Freshly isolated type II cells were prepared by the method of Dobbs, et al., Am. Rev. Respir. Sid. (1986) 134:141-145. Briefly, lungs of specific-pathogen-free male Sprague-Dawley rats weighing 160-180 g (Bantin-Kingman, Fremont, CA) were digested with elastase (Cooper Biomedical, Malverne, PA). The minced digest was filtered through a series of nylon meshes and cells were collected by centrifugation. The cells were then plated on IgG-coated plates and the non-type II cells, which were primarily macrophages and lymophocytes, adhered to the plate over a period of one hour at 37° C. in a 10% CO2 /air incubator. The non-adherent cells were removed by gentle panning and were centrifuged at 130×g for 8 minutes. This cell pellet contained 85±1% type II cells. The viability of the cells as determined by erythrosin B exclusion averaged 97±1%.
(§6) 2.5×10^6 freshly isolated type II cells were suspended in 1 ml of MEM-Krebs. The concentration of calcium was […]. […] Zero time values were determined by centrifugation and washing of the cells immediately after addition of liposomes. […] The final cell pellet was resuspended in 0.5 ml of MEM-Krebs; 0.3 ml was analyzed for radioactivity in a Beckman LS-75000 scintillation counter. […]

type II cells [7] = conditions: result in words; cited from earlier work
type II cells [8] = test: In vitro uptake of Vitamin E liposomes by freshly isolated type II cells; type: cell-based, male Sprague-Dawley rats; conditions: result in words
Procedure: as §5, §6

[9] = 24 hour timecourse, result in words

For `N=C(N)c1ccc(OCCCCCOc2ccc(C(=N)N)cc2)cc1` [Pentamidine isethionate, pentamidine isethionate], which toxicity [1] is on record?
Its toxicity is “quite toxic if given systemically”.

With “alveolar surfactant protein SP-A: relatively high molecular weight (of the order of 32 kD) apoprotein associated with the lung surfactant complex; sequence of FIG. 1” as the molecule, how does the “effect on serum levels of radiolabelled vitamin E” value [2, 9] read?
The value was “enhances serum levels of radiolabelled vitamin E”.

What about the “effect on transport of the liposomes containing Vitamin E to lung tissue” value [3] of the same molecule?
Its value is “stimulates the transport of the liposomes containing Vitamin E to lung tissue in a rapid fashion”.

What about the ASP activity [4] of the same molecule?
The ASP activity was “show ASP activity in combination as well as independently”.

What about the “effect on transport to the lung” value [5, 9] of the same molecule?
Its value is “enhances transport to the lung”.

What about the “effect on uptake of liposomes containing 6-carboxy-fluorscein” value (type II cells [6]) of the same molecule?
The value was “stimulates the uptake”.

And the “cell specificity of effects” value (type II cells [7])?
The value was “seem specific to type II cells and macrophages”.

What about the “effect on uptake of liposomes containing Vitamin E” value (type II cells [8]) of the same molecule?
The value was “stimulates the uptake”.

Which “serum radiolabelled Vitamin E, with vs. without SP-A” value ([2]; rat, in vivo) does the source give for Vitamin E [reference compound] here?
The value was “The same non-specific effect is also seen in the serum”.

And the “amount of radiolabelled Vitamin E in the lung, with vs. without SP-A” value ([5]; rat, in vivo)?
The value was “comparable in experimental and control animals”.

B1: SP-B: the larger of the two hydrophobic proteins, about 18 kD on gels under non-reducing conditions; sequence of FIG. 2 (protein, UniProt P07988 201-279, looked up)
Pulmonary …: FPIPLPYCWLCRALIKRIQAMIPKGALAVAVAQVCRVVPLVAGGICQCLAERYSVILLDTLLGRMLPQLVCRLVLRCSM
modifications: Pulmonary surfactant-associated protein B
With B1 as the molecule, how does the ASP activity [4] read?
The ASP activity was “show ASP activity in combination as well as independently”.
